Measured values: patent US12275850B2, “Organic-inorganic hybrid material comprising a metal and lignin, processes for preparing the same and uses thereof” (UPM-KYMMENE CORPORATION, priority 2018, dated 2025)

How the values were obtained:
Assay in all cases: MIC, agar dilution / broth microdilution
Format in all cases: cell-based
Conditions in all cases: mainly agar dilution; g/l of material; for Copper MIC refers to concentration of copper
Alternaria solani = tested on: Alternaria solani
Protocol: (§1) The antimicrobial activity of organic-inorganic hybrid materials of the present invention was evaluated through in vitro test of antimicrobial susceptibility with broth microdilution method and agar dilution method (CLSI protocol—Clinical and Laboratory Standards Institute). […] Agar dilution assay was used: the organic-inorganic hybrid materials were incorporated at different concentrations into the agar medium (specific for each microorganism) and after solidification of the medium, the inoculum (10^4 CFU/ml for the fungi and […] for the bacteria) was applied to the agar surface. Broth microdilution assay: the organic-inorganic hybrid materials were diluted into specific liquid media in the presence of a well-defined microbial suspension (10^4 CFU/ml for the fungi and […] for the bacteria). In the broth microdilution assay, the organic-inorganic hybrid materials were diluted into specific liquid media, but they resulted insoluble with the formation of precipitates on the bottom of the wells, consequently the MIC were mainly determinate with agar dilution assay. Two controls were prepared for the tests: a positive control of activity through use of Miconazole (against fungi) and Ceftriaxone (against bacteria). All the tests have been carried out in triplicate, giving very similar inhibition results. In parenthesis, the concentration (g/l) of copper relative to the corresponding copper-lignin derivative. For copper sulphate pentahydrate (copper) and copper hydroxide (copper 2) the MIC refer to the concentration of copper (g/l): […]

Botritis cinerea = tested on: Botritis cinerea
Protocol: as §1

Campylobacter jejuni = tested on: Campylobacter jejuni
Protocol: as §1

Candida albicans = tested on: Candida albicans
Protocol: as §1

Erwinia amylovora = tested on: Erwinia amylovora
Protocol: as §1

Escherichia coli = tested on: Escherichia coli
Protocol: as §1

Fusarium solani = tested on: Fusarium solani
Protocol: as §1

Monilia laxa = tested on: Monilia laxa
Protocol: as §1

Pseudomonas aeruginosa = tested on: Pseudomonas aeruginosa
Protocol: as §1

[1] = tested on: Pseudomonas syringae pv. actinidiae
Protocol: as §1

Rizoctonia solani = tested on: Rizoctonia solani
Protocol: as §1

Salmonella enteriditis = tested on: Salmonella enteriditis
Protocol: as §1

Septoria tritici = tested on: Septoria tritici
Protocol: as §1

Staphylococcus aureus = tested on: Staphylococcus aureus
Protocol: as §1

[2] = tested on: Xanthomonas arboricola pv. pruni
Protocol: as §1

Xanthomonas campestris = tested on: Xanthomonas campestris
Protocol: as §1

With [Cu+2].[OH-].[OH-] [Copper, Copper hydroxide] the “MIC (g/l) A. solani” value (Alternaria solani) was 5.2 g/L, the “MIC (g/l) B. cinerea” value (Botritis cinerea) was 5.2 g/L and the “MIC (g/l) C. jejuni” value (Campylobacter jejuni) was less than 0.16 g/L. The “MIC (g/l) C. albicans” value (Candida albicans) was 1.30 g/L, the “MIC (g/l) E. amylovora” value (Erwinia amylovora) was 0.65 g/L and the “MIC (g/l) E. coli” value (Escherichia coli) was 0.32 g/L. For the same compound, the “MIC (g/l) F. solani” value (Fusarium solani) was 10.4 g/L, the “MIC (g/l) M. laxa” value (Monilia laxa) was 0.65 g/L and the “MIC (g/l) P. aeruginosa” value (Pseudomonas aeruginosa) was 1.30 g/L. The “MIC (g/l) P. syringae” value [1] was 0.32 g/L, the “MIC (g/l) R. solani” value (Rizoctonia solani) was 0.32 g/L and the “MIC (g/l) S. enteridis” value (Salmonella enteriditis) was 0.65 g/L. The “MIC (g/l) S. tritici” value (Septoria tritici) was 0.65 g/L, the “MIC (g/l) S. aureus” value (Staphylococcus aureus) was 0.32 g/L and the “MIC (g/l) X. arboricola” value [2] was less than 0.16 g/L. The “MIC (g/l) X. campestris” value (Xanthomonas campestris) was 0.32 g/L.
